Results taken from BindingDB's records for patent US11180503 (ELI LILLY AND COMPANY, 2021).

Target: Dual specificity calcium/calmodulin-dependent 3',5'-cyclic nucleotide phosphodiesterase 1B (Homo sapiens, UniProt Q01064)
Test: Ca2+-Calmodulin Dependent PDE Enzyme Assays
Experimental: PDE1B, PDE1A, and PDE1C are cloned and purified following standard protein generation procedures. The assay buffer is prepared to give a final concentration in the assay of 50 mM Tris-HCl, 50 mM MgCl2, 4 mM CaCl2, 0.1% Bovine serum albumin and 6 U/ml Calmodulin in water, at pH 7.5.

Chain of Dual specificity calcium/calmodulin-dependent 3',5'-cyclic nucleotide phosphodiesterase 1B (Q01064 whole entry): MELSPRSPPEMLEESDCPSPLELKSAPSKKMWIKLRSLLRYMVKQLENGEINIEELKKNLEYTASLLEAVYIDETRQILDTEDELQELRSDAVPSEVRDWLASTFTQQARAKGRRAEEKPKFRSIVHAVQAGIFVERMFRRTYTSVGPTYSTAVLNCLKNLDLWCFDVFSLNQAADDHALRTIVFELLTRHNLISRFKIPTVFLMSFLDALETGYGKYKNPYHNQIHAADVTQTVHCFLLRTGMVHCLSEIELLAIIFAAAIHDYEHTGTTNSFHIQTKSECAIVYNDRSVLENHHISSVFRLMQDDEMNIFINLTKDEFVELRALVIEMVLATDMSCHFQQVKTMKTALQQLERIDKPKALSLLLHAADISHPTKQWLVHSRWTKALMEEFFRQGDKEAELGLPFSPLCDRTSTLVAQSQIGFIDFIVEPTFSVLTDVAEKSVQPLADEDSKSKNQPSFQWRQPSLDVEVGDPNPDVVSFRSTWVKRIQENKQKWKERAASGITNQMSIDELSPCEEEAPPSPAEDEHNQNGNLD

Row | IC50 [nM] | SMILES
1 | 0.419 | CCCCn1c(=O)c2nnc(C3(C4CC4)CC3)n2c2ncc(CC)cc21 [US11180503, Example 9]
2 | 0.928 | CCCCn1c(=O)c2nnc(C3(C4CC4)CC3)n2c2ncc(CO)cc21 [US11180503, Example 11]
